According to US20220362386A1, “LIQUID COMPOSITIONS COMPRISING A LEVODOPA AMINO ACID CONJUGATE AND USES THEREOF” (NeuroDerm, Ltd., priority 2019, published 2022):
Structures can show the parent of a compound that is named as a salt. Where two headings read alike, the source gives them in different places. Non-standard residues stand in square brackets, D forms with d. Residues, ends and D or L forms follow the SMILES beside them. Dopa = N[C@@H](Cc1ccc(O)c(O)c1)C(=O)O

What was measured:
human plasma = test: Protein binding, equilibrium dialysis method; format: in vitro ADME; details: 1.0E-05M; 37° C., 4 h
Description: (§1) The protein binding values of various LDAA compounds in their TFA salt form (10^−5M) were tested in human plasma. The equilibrium dialysis technique was used to separate the fraction of the test compound that was unbound from the fraction of the test compound that bound to proteins during the test. The test was performed on 96-well plates in a dialysis block constructed from Teflon™.
(§2) The protein containing matrix used was human plasma, wherein the assay matrix was human serum albumin and alpha-1 acid glycoprotein. The protein matrix was spiked with each test compound at 10 μM (by default, n=2) with a final DMSO concentration of 1%. The dialysate compartment is loaded with phosphate buffered saline (PBS, pH 7.4), and the sample compartment was loaded with an equal volume of the spiked protein matrix. The dialysis plate was then sealed and incubated at 37° C. for 4 h.
(§3) Following the incubation, samples were taken from each compartment, diluted with PBS followed by the addition of acetonitrile, after which the samples were centrifuged. The supernatants were collected and analyzed by HPLC-MS/MS. The HPLC tests included a binary LC pump with an autosampler, a C18 column (2×20 mm), and gradient elution. The HPLC conditions were adjusted when necessary.
(§4) A control sample (n=2) was prepared from the spiked protein matrix in the same manner; however, no dialysis was performed on the control. It is noted that the control sample served as the bases for the recovery determination.
(§5) Acebutolol, quinidine, and warfarin were used in each assay as reference compounds, wherein it is known that those reference compounds provide low, medium and high human plasma protein binding values, respectively.
(§6) The % of the tested compound that is bound to proteins and the recovery values were calculated as follows:
(§7) Protein binding (%)=100×(Areap−Areab)/Areap
(§8) Recovery (%)=100×(Areap−Areab)/Areac
(§9) The determination of the recovery % serves as an indicator of reliability of the calculated protein binding value. […] This is most likely due to non-specific binding or degradation of the test compound. It is noted that a recovery of above 60% is considered to be reliable, while under 60% recovery, the results of the test are considered to be unreliable.

[1] = Protein binding, equilibrium dialysis method; format: in vitro ADME, human; details: human, human plasma, pH 7.4, 1.0E-05M
Description: as §1, §2, §3, §4, §5, §6, §7, §8, §9

[2] = In-vitro metabolism of LDAA compounds using liver microsomes; format: in vitro ADME, human; details: for half-life at 0.1 μM / microsomal CLint at 0.1 μM: both sexes, human, pooled human liver microsomes; for half-life at 0.1 μM: pH 7.4, 1.0E−07M, 0.1 mg/mL microsomal protein; for microsomal CLint at 0.1 μM: pH 7.4, calculated from the half-life; for microsomal CLint at 0.1 μM / % Compound Remaining 1st / % Compound Remaining 2nd / % Compound Remaining Mean: 1.0E−07M
Description: The stability of test compounds in pooled human liver microsomes was determined on 96-well plates, wherein the test compounds were quantified at five time points by HPLC-MS/MS analysis. The assay matrix included mixed gender and a pool of 50 human liver microsomes, wherein the final microsomal protein concentration was 0.1 mg/mL. The test concentration was 0.1 μM with 0.01% DMSO, 0.25% acetonitrile and 0.25% methanol.
Each test compound was pre-incubated for five minutes with pooled liver microsomes in phosphate buffer (pH 7.4) in a 37° C. shaking water-bath. The reaction was initiated by adding a nicotinamide adenine dinucleotide phosphate (NADPH)-generating system and incubating for 0, 15, 30, 45, and 60 min. The reaction was stopped by transferring the incubation mixture to acetonitrile/methanol. Samples were then mixed and centrifuged, wherein the supernatants were used for HPLC-MS/MS analysis.
In each assay the four reference compounds propranolol, imipramine, verapamil and terfenadine were tested, wherein the propranolol and the imipramine are known to be relatively stable, while the verapamil and the terfenadine are known to be readily metabolized in human liver microsomes.
All samples were analyzed by HPLC-MS/MS using selected reaction monitoring. The HPLC system consisted of a binary LC pump with autosampler, a C-18 column, and a gradient. The conditions were adjusted when necessary.
Peak areas corresponding to the test compound were recorded. The amount of each compound remaining was calculated by comparing the peak area at each time point to time zero. The half-life is calculated from the slope of the initial linear range of the logarithmic curve of compound remaining (%) vs. time, assuming first order kinetics. In addition, the intrinsic clearance (Clint) was calculated from the half-life using the following equation:
Clint(μL/min/mg protein)=0.693/(t1/2×protein concentration)
The results of the in-vitro human liver microsome metabolism tests of various LDAA compounds (10^−7M), in their TFA salt forms, are provided in FIG. 1 and in Table 17, which presents the % of the compound remaining at times 0, 15, 30, 45 and 60 minutes, two half-life measurements and the Clint, calculated as detailed above.

[3] = Comparative formulation tests, physical stability (Tables 32a-c, 33a-c); format: physicochemical; details: LDAA TFA salt/CD formulation; for Physical stability (visual), Day 1: Day 1, room temperature; for Physical stability (visual), Day 2: Day 2, room temperature; for Physical stability (visual), Day 5: Day 5, room temperature after two days at 2-8° C.; for Physical stability (visual), Day 6: Day 6, room temperature after two days at 2-8° C.; for Physical stability (visual), Day 40: Day 40, returned to 2-8° C.
Description: It is noted that the formulations were similarly to those above; however, CD was added, and further, the amounts of the antioxidants, i.e., ascorbic acid and NAC, were added at three different concentrations, as detailed in Tables 32a-c below. Further, an additional amount of arginine was added to the solution in order to adjust the pH to a physiologically acceptable pH.
The formulations prepared as detailed in Tables 32a, 32b and 32c were (a) held at room temperature for two days; (b) transferred to a refrigerator (2-8° C.) for two days; and (c) transferred from the refrigerator to room temperature for an additional two days, during which they were assessed again for precipitants. The formulations were then returned to the refrigerator (2-8° C.) and assessed for precipitants on day 40. The physical stability of each formulation was assessed on the first two days and again on the last two days. The physical stability of the formulations was assessed visually. A clear solution was considered to be stable, while a solution comprising precipitants was considered to be physically unstable. The stability results of the formulations of Tables 32a, 32b and 32c are detailed in Tables 33a, 33b and 33c, respectively.

[4] = read-out: Half-Life (minute) 1st
[5] = read-out: Half-Life (minute) 2nd
[6] = read-out: Half-Life (minute) Mean
[7] = NB 144-15, ~0.1% Asc + ~0.1% NAC
[8] = NB 144-18, ~0.4% Asc + ~0.4% NAC
[9] = NB 144-20, ~0.8% Asc + ~0.8% NAC

NCCCC[C@H](NC(=O)[C@@H](N)Cc1ccc(O)c(O)c1)C(=O)O [LD-Lys TFA salt, Levodopa Lysine TFA Salt] (H-[Dopa]-Lys-OH)
% Protein Bound 1st (human plasma): 59.5%
% Protein Bound 2nd (human plasma): 53.1%
% Protein Bound Mean (human plasma): 56%
recovery at 4 h, 10 μM ([1]; read-out: % Recovery 1st): 12%
recovery at 4 h, 10 μM ([1]; read-out: % Recovery 2nd): 19%
recovery at 4 h, 10 μM ([1]; read-out: % Recovery Mean): 16%
half-life at 0.1 μM [2, 4]: 91.3 min
half-life at 0.1 μM [2, 5]: 58.3 min
half-life at 0.1 μM [2, 6]: > 60 min
microsomal CLint at 0.1 μM [2]: < 116 µL/min/mg
% Compound Remaining 1st ([2]; incubation time 0 minutes): 100%
% Compound Remaining 2nd ([2]; incubation time 0 minutes): 100%
% Compound Remaining Mean ([2]; incubation time 0 minutes): 100%
% Compound Remaining 1st ([2]; incubation time 15 minutes): {123.5%
% Compound Remaining 2nd ([2]; incubation time 15 minutes): 96.7%
% Compound Remaining Mean ([2]; incubation time 15 minutes): 97%
% Compound Remaining 1st ([2]; incubation time 30 minutes): 64.2%
% Compound Remaining 2nd ([2]; incubation time 30 minutes): 83.5%
% Compound Remaining Mean ([2]; incubation time 30 minutes): 74%
% Compound Remaining 1st ([2]; incubation time 45 minutes): 76.7%
% Compound Remaining 2nd ([2]; incubation time 45 minutes): {43.7} %
% Compound Remaining Mean ([2]; incubation time 45 minutes): 77%
% Compound Remaining 1st ([2]; incubation time 60 minutes): 59.5%
% Compound Remaining 2nd ([2]; incubation time 60 minutes): 50.4%
% Compound Remaining Mean ([2]; incubation time 60 minutes): 55%
Physical stability (visual), Day 1 [3, 7]: Precipitated
Physical stability (visual), Day 2 [3, 7]: Precipitated
Physical stability (visual), Day 5 [3, 7]: Precipitated
Physical stability (visual), Day 6 [3, 7]: Precipitated
Physical stability (visual), Day 40 [3, 7]: Precipitated
Physical stability (visual), Day 1 [3, 8]: Stable
Physical stability (visual), Day 2 [3, 8]: Stable
Physical stability (visual), Day 5 [3, 8]: Precipitated
Physical stability (visual), Day 6 [3, 8]: Precipitated
Physical stability (visual), Day 40 [3, 8]: Precipitated
Physical stability (visual), Day 1 [3, 9]: Stable
Physical stability (visual), Day 2 [3, 9]: Stable
Physical stability (visual), Day 5 [3, 9]: Precipitated
Physical stability (visual), Day 6 [3, 9]: Precipitated
Physical stability (visual), Day 40 [3, 9]: Precipitated

N[C@@H](Cc1ccc(O)c(O)c1)C(=O)N[C@@H](CC(=O)O)C(=O)O [LD-Asp TFA salt, Levodopa Aspartic Acid] (H-[Dopa]-Asp-OH)
% Protein Bound 1st (human plasma): 99.1%
% Protein Bound 2nd (human plasma): 99.4%
% Protein Bound Mean (human plasma): 99%
recovery at 4 h, 10 μM ([1]; read-out: % Recovery 1st): 105%
recovery at 4 h, 10 μM ([1]; read-out: % Recovery 2nd): 108%
recovery at 4 h, 10 μM ([1]; read-out: % Recovery Mean): 107%
Physical stability (visual), Day 1 [3, 7]: Stable
Physical stability (visual), Day 2 [3, 7]: Stable
Physical stability (visual), Day 5 [3, 7]: Stable
Physical stability (visual), Day 6 [3, 7]: Stable
Physical stability (visual), Day 40 [3, 7]: Stable
Physical stability (visual), Day 1 [3, 8]: Stable
Physical stability (visual), Day 2 [3, 8]: Stable
Physical stability (visual), Day 5 [3, 8]: Stable
Physical stability (visual), Day 6 [3, 8]: Stable
Physical stability (visual), Day 40 [3, 8]: Stable
Physical stability (visual), Day 1 [3, 9]: Stable
Physical stability (visual), Day 2 [3, 9]: Stable
Physical stability (visual), Day 5 [3, 9]: Stable
Physical stability (visual), Day 6 [3, 9]: Stable
Physical stability (visual), Day 40 [3, 9]: Stable

NC(=O)CC[C@H](NC(=O)[C@@H](N)Cc1ccc(O)c(O)c1)C(=O)O [LD-Gln TFA salt, Levodopa Glutamine TFA Salt] (H-[Dopa]-Gln-OH)
% Protein Bound 1st (human plasma): 99.7%
% Protein Bound 2nd (human plasma): 99.8%
% Protein Bound Mean (human plasma): 99%
recovery at 4 h, 10 μM ([1]; read-out: % Recovery 1st): 77%
recovery at 4 h, 10 μM ([1]; read-out: % Recovery 2nd): 78%
recovery at 4 h, 10 μM ([1]; read-out: % Recovery Mean): 78%
half-life at 0.1 μM [2, 4]: 155 min
half-life at 0.1 μM [2, 5]: 158 min
half-life at 0.1 μM [2, 6]: > 60 min
microsomal CLint at 0.1 μM [2]: < 116 µL/min/mg
% Compound Remaining 1st ([2]; incubation time 0 minutes): 100%
% Compound Remaining 2nd ([2]; incubation time 0 minutes): 100%
% Compound Remaining Mean ([2]; incubation time 0 minutes): 100%
% Compound Remaining 1st ([2]; incubation time 15 minutes): 103.4%
% Compound Remaining 2nd ([2]; incubation time 15 minutes): {121.2%
% Compound Remaining Mean ([2]; incubation time 15 minutes): 103%
% Compound Remaining 1st ([2]; incubation time 30 minutes): 68.2%
% Compound Remaining 2nd ([2]; incubation time 30 minutes): {139.0%
% Compound Remaining Mean ([2]; incubation time 30 minutes): 68%
% Compound Remaining 1st ([2]; incubation time 45 minutes): 81.8%
% Compound Remaining 2nd ([2]; incubation time 45 minutes): 94.1%
% Compound Remaining Mean ([2]; incubation time 45 minutes): 88%
% Compound Remaining 1st ([2]; incubation time 60 minutes): 80.4%
% Compound Remaining 2nd ([2]; incubation time 60 minutes): 72.8%
% Compound Remaining Mean ([2]; incubation time 60 minutes): 77%
